Reference: US8748415B2 (priority 2011, dated 2014)

Test system: recombinant NL4-3 virus (Renilla luciferase in nef, Gag P373S)
Assay: HIV cell culture assay (luciferase activity in MT-2 cells infected with NLRluc recombinant virus)
Type: cell-based
Details: NL43, MT-2 cells infected 4-5 days with NLRluc recombinant virus
How it was run: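 Activity was read as luciferase output (Dual Luciferase reagents premixed with lysis solution) after 4–5 days of infection in serially diluted inhibitor. Host cells were MT-2 in 10% FBS RPMI. The reporter virus came from transfected 293T cells and was titered on MT-2.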

| Structure (SMILES) | EC50 (class symbol) | EC50 (numeric value) |
| --- | --- | --- |
| C=C(C)[C@@H]1CC[C@]2(CNCCc3ccc(S(N)(=O)=O)cc3)CC[C@]3(C)[C@H](CC[C@@H]4[C@@]5(C)CC=C(c6ccc(C(=O)O)cc6)C(C)(C)[C@@H]5CC[C@]43C)[C@@H]12 [Example 36, 4-((1R,3aS,5aR,5bR,7aR,11aS,11bR,13aR,13bR)-5a,5b,8,8,11a-pentamethyl-1-(prop-1-en-2-yl)-3a-((4-sulfamylphenethylamino)methyl)-2,3,3a,4,5,5a,5b,6,7,7a,8,11,11a,11b,12,13,13a,13b-octadecahydro-1H-cyclopenta[a]chrysen-9-yl)benzoic acid] | < 100 nM | – |
| C=C(C)[C@@H]1CC[C@]2(CNCCCC(=O)OC(C)(C)C)CC[C@]3(C)[C@H](CC[C@@H]4[C@@]5(C)CC=C(c6ccc(C(=O)O)cc6)C(C)(C)[C@@H]5CC[C@]43C)[C@@H]12 [Example 27, 4-((1R,3aS,5aR,5bR,7aR,11aS,11bR,13aR,13bR)-3a-((4-tert-butoxy-4-oxobutylamino)methyl)-5a,5b,8,8,11a-pentamethyl-1-(prop-1-en-2-yl)-2,3,3a,4,5,5a,5b,6,7,7a,8,11,11a,11b,12,13,13a,13b-octadecahydro-1H-cyclopenta[a]chrysen-9-yl)benzoic acid] | < 100 nM | – |
| C=C(C)[C@@H]1CC[C@]2(CNCCCN(C)C)CC[C@]3(C)[C@H](CC[C@@H]4[C@@]5(C)CC=C(c6ccc(C(=O)O)cc6)C(C)(C)[C@@H]5CC[C@]43C)[C@@H]12 [Example 6, 4-((1R,3aS,5aR,5bR,7aR,11aS,11bR,13aR,13bR)-3a-((3-(dimethylamino)propylamino)methyl)-5a,5b,8,8,11a-pentamethyl-1-(prop-1-en-2-yl)-2,3,3a,4,5,5a,5b,6,7,7a,8,11,11a,11b,12,13,13a,13b-octadecahydro-1H-cyclopenta[a]chrysen-9-yl)benzoic acid] | – | 30 nM |
| C=C(C)[C@@H]1CC[C@]2(CNCCCC(=O)OC)CC[C@]3(C)[C@H](CC[C@@H]4[C@@]5(C)CC=C(c6ccc(C(=O)O)cc6)C(C)(C)[C@@H]5CC[C@]43C)[C@@H]12 [Example 38, 4-((1R,3aS,5aR,5bR,7aR,11aS,11bR,13aR,13bR)-3a-((4-methoxy-4-oxobutylamino)methyl)-5a,5b,8,8,11a-pentamethyl-1-(prop-1-en-2-yl)-2,3,3a,4,5,5a,5b,6,7,7a,8,11,11a,11b,12,13,13a,13b-octadecahydro-1H-cyclopenta[a]chrysen-9-yl)benzoic acid] | < 100 nM | – |
| C=C(C)[C@@H]1CC[C@]2(CNCCCCN3CCS(=O)(=O)CC3)CC[C@]3(C)[C@H](CC[C@@H]4[C@@]5(C)CC=C(c6ccc(C(=O)O)cc6)C(C)(C)[C@@H]5CC[C@]43C)[C@@H]12 [Example 76, 4-((1R,3aS,5aR,5bR,7aR,11aS,11bR,13aR,13bR)-3a-(((4-(1,1-dioxido-4-thiomorpholinyl)butyl)amino)methyl)-1-isopropenyl-5a,5b,8,8,11a-pentamethyl-2,3,3a,4,5,5a,5b,6,7,7a,8,11,11a,11b,12,13,13a,13b-octadecahydro-1H-cyclopenta[a]chrysen-9-yl)benzoic acid] | < 100 nM | – |
| C=C(C)[C@@H]1CC[C@]2(CNCC(=O)N3CCCCC3)CC[C@]3(C)[C@H](CC[C@@H]4[C@@]5(C)CC=C(c6ccc(C(=O)O)cc6)C(C)(C)[C@@H]5CC[C@]43C)[C@@H]12 [Example 110, 4-((1R,3aS,5aR,5bR,7aR,11aS,11bR,13aR,13bR)-5a,5b,8,8,11a-pentamethyl-3a-((2-oxo-2-(piperidin-1-yl)ethylamino)methyl)-1-(prop-1-en-2-yl)-2,3,3a,4,5,5a,5b,6,7,7a,8,11,11a,11b,12,13,13a,13b-octadecahydro-1H-cyclopenta[a]chrysen-9-yl)benzoic acid] | < 100 nM | – |
| C=C(C)[C@@H]1CC[C@]2(CNC(=O)[C@@H]3CCCN3C)CC[C@]3(C)[C@H](CC[C@@H]4[C@@]5(C)CC=C(c6ccc(C(=O)O)cc6)C(C)(C)[C@@H]5CC[C@]43C)[C@@H]12 [Example 150, 4-((1R,3aS,5aR,5bR,7aR,11aS,11bR,13aR,13bR)-5a,5b,8,8,11a-pentamethyl-3a-(((S)-1-methylpyrrolidine-2-carboxamido)methyl)-1-(prop-1-en-2-yl)-2,3,3a,4,5,5a,5b,6,7,7a,8,11,11a,11b,12,13,13a,13b-octadecahydro-1H-cyclopenta[a]chrysen-9-yl)benzoic acid] | < 100 nM | – |
| C=C(C)[C@@H]1CC[C@]2(CNC(=O)CCN3CCS(=O)(=O)CC3)CC[C@]3(C)[C@H](CC[C@@H]4[C@@]5(C)CC=C(c6ccc(C(=O)O)cc6)C(C)(C)[C@@H]5CC[C@]43C)[C@@H]12 [Example 146, 4-((1R,3aS,5aR,5bR,7aR,11aS,11bR,13aR,13bR)-3a-(((3-(1,1-dioxido-4-thiomorpholinyl)propanoyl)amino)methyl)-1-isopropenyl-5a,5b,8,8,11a-pentamethyl-2,3,3a,4,5,5a,5b,6,7,7a,8,11,11a,11b,12,13,13a,13b-octadecahydro-1H-cyclopenta[a]chrysen-9-yl)benzoic acid] | < 100 nM | – |
| C=C(C)[C@@H]1CC[C@]2(CNC/C=C/CN3CCS(=O)(=O)CC3)CC[C@]3(C)[C@H](CC[C@@H]4[C@@]5(C)CC=C(c6ccc(C(=O)O)cc6)C(C)(C)[C@@H]5CC[C@]43C)[C@@H]12 [Example 73, 4-((1R,3aS,5aR,5bR,7aR,11aS,11bR,13aR,13bR)-3a-((((2E)-4-(1,1-dioxido-4-thiomorpholinyl)-2-buten-1-yl)amino)methyl)-1-isopropenyl-5a,5b,8,8,11a-pentamethyl-2,3,3a,4,5,5a,5b,6,7,7a,8,11,11a,11b,12,13,13a,13b-octadecahydro-1H-cyclopenta[a]chrysen-9-yl)benzoic acid] | < 100 nM | – |
| C=C(C)[C@@H]1CC[C@]2(CNCCC(=O)N3CCS(=O)(=O)CC3)CC[C@]3(C)[C@H](CC[C@@H]4[C@@]5(C)CC=C(c6ccc(C(=O)O)cc6)C(C)(C)[C@@H]5CC[C@]43C)[C@@H]12 [Example 118, 4-((1R,3aS,5aR,5bR,7aR,11aS,11bR,13aR,13bR)-3a-(((3-(1,1-dioxido-4-thiomorpholinyl)-3-oxopropyl)amino)methyl)-1-isopropenyl-5a,5b,8,8,11a-pentamethyl-2,3,3a,4,5,5a,5b,6,7,7a,8,11,11a,11b,12,13,13a,13b-octadecahydro-1H-cyclopenta[a]chrysen-9-yl)benzoic acid] | < 100 nM | – |
| C=C(C)[C@@H]1CC[C@]2(CNCCCn3ccnc3)CC[C@]3(C)[C@H](CC[C@@H]4[C@@]5(C)CC=C(c6ccc(C(=O)O)cc6)C(C)(C)[C@@H]5CC[C@]43C)[C@@H]12 [Example 55, 4-((1R,3aS,5aR,5bR,7aR,11aS,11bR,13aR,13bR)-3a-((3-(1H-imidazol-1-yl)propylamino)methyl)-5a,5b,8,8,11a-pentamethyl-1-(prop-1-en-2-yl)-2,3,3a,4,5,5a,5b,6,7,7a,8,11,11a,11b,12,13,13a,13b-octadecahydro-1H-cyclopenta[a]chrysen-9-yl)benzoic acid] | < 100 nM | – |
| C=C(C)[C@@H]1CC[C@]2(CNCCS(N)(=O)=O)CC[C@]3(C)[C@H](CC[C@@H]4[C@@]5(C)CC=C(c6ccc(C(=O)O)cc6)C(C)(C)[C@@H]5CC[C@]43C)[C@@H]12 [Example 45] | < 100 nM | – |
| C=C(C)[C@@H]1CC[C@]2(CNCCC(=O)N3CCCC3)CC[C@]3(C)[C@H](CC[C@@H]4[C@@]5(C)CC=C(c6ccc(C(=O)O)cc6F)C(C)(C)[C@@H]5CC[C@]43C)[C@@H]12 [Example 89, 3-fluoro-4-((1R,3aS,5aR,5bR,7aR,11aS,11bR,13aR,13bR)-5a,5b,8,8,11a-pentamethyl-3a-((3-oxo-3-(pyrrolidin-1-yl)propylamino)methyl)-1-(prop-1-en-2-yl)-2,3,3a,4,5,5a,5b,6,7,7a,8,11,11a,11b,12,13,13a,13b-octadecahydro-1H-cyclopenta[a]chrysen-9-yl)benzoic acid] | < 100 nM | – |
| C=C(C)[C@@H]1CC[C@]2(CNCCNCCO)CC[C@]3(C)[C@H](CC[C@@H]4[C@@]5(C)CC=C(c6ccc(C(=O)O)cc6)C(C)(C)[C@@H]5CC[C@]43C)[C@@H]12 [Example 62, 4-((1R,3aS,5aR,5bR,7aR,11aS,11bR,13aR,13bR)-3a-((2-(2-hydroxyethylamino)ethylamino)methyl)-5a,5b,8,8,11a-pentamethyl-1-(prop-1-en-2-yl)-2,3,3a,4,5,5a,5b,6,7,7a,8,11,11a,11b,12,13,13a,13b-octadecahydro-1H-cyclopenta[a]chrysen-9-yl)benzoic acid] | < 100 nM | – |
| C=C(C)[C@@H]1CC[C@]2(CNC(=O)[C@@H]3CCCN3C(C)=O)CC[C@]3(C)[C@H](CC[C@@H]4[C@@]5(C)CC=C(c6ccc(C(=O)O)cc6)C(C)(C)[C@@H]5CC[C@]43C)[C@@H]12 [Example 138, 4-((1R,3aS,5aR,5bR,7aR,11aS,11bR,13aR,13bR)-3a-(((S)-1-acetylpyrrolidine-2-carboxamido)methyl)-5a,5b,8,8,11a-pentamethyl-1-(prop-1-en-2-yl)-2,3,3a,4,5,5a,5b,6,7,7a,8,11,11a,11b,12,13,13a,13b-octadecahydro-1H-cyclopenta[a]chrysen-9-yl)benzoic acid] | < 100 nM | – |
| C=C(C)[C@@H]1CC[C@]2(CNC(=O)OCCCN3CCS(=O)(=O)CC3)CC[C@]3(C)[C@H](CC[C@@H]4[C@@]5(C)CC=C(c6ccc(C(=O)O)cc6)C(C)(C)[C@@H]5CC[C@]43C)[C@@H]12 [Example 164, 4-((1R,3aS,5aR,5bR,7aR,11aS,11bR,13aR,13bR)-3a-((((3-(1,1-dioxido-4-thiomorpholinyl)propoxy)carbonyl)amino)methyl)-1-isopropenyl-5a,5b,8,8,11a-pentamethyl-2,3,3a,4,5,5a,5b,6,7,7a,8,11,11a,11b,12,13,13a,13b-octadecahydro-1H-cyclopenta[a]chrysen-9-yl)benzoic acid] | < 100 nM | – |
